Measured values reported in patent US11406605B2, “Therapeutic compositions for treating pancreatic cancer” (Golden Biotechnology Corporation, priority 2017, dated 2022).
Several values for one entry are separate records, joined by “and”; a condition that tells them apart may be missing. Identical values can stand only once.

Tested on: metastatic pancreatic cancer
Assay: Phase I study of Compound 1 with nab-paclitaxel and gemcitabine, preliminary results
Assay type: in vivo, human
Settings: 600 mg daily dosage of Compound 1 in combination with nab-paclitaxel and gemcitabine; after 3rd cycle (8 weeks treatment); individual patients
Source text: This is a single-arm, open-label, multi-center Phase I study of Compound 1 in combination with nab-paclitaxel and gemcitabine in first line treatment naïve subjects with Stage IV metastatic pancreatic carcinoma.
The first part of the study will follow a 3+3 dose escalation design to determine the MTD or MFD (based on PK and capsules strength) of antroquinonol in combination with standard dose regimen of nab-paclitaxel and gemcitabine. Two dose levels of antroquinonol given TID are planned based on dose escalation data and capsules strengths. The final number of subjects will be based on the number of dose levels investigated and DLTs occurrence. Up to 12 subjects may be treated in this part of the study. A Safety Monitoring Committee (SMC) will be set up for this study to review DLTs and overall safety data and judge the relevance of events to the dose escalation scheme. […]
Treatments Administered: Compound 1 will be administered in 200- to 300-mg doses (planned dose levels), TID, given in 100 mg capsules (resulting a daily dosage of 600 mg to 900 mg). Additional dose levels may be investigated as determined by the study SMC. […]
Efficacy Assessments: The RECIST 1.1 criteria will be used to assess subject response to treatment by determining ORR, DoR, DCR, PFS, PFS 3 months, and PFS 6 months. […] The OS, OS 6 months, and OS 12 months will also be evaluated.

COC1=C(OC)C(O)C(C/C=C(\C)CC/C=C(\C)CCC=C(C)C)C(C)C1=O (centres unmarked) [Compound 1, 4-hydroxy-2,3-dimethoxy-6-methyl-5-(3,7,11-trimethyldodeca-2,6,10-trienyl)cyclohex-2-enone]
patient tumor size after treatment: 84 mm and 39 mm
patient tumor size reduced: 7.6% and 22%
